Experimental findings from patent US12617783B2, “Heterocyclic GLP-1R agonists” (BIOMEA FUSION, INC., priority 2024, dated 2026) are described below.

The target in this assay is T1, human GLP-1R (Homo sapiens, UniProt P43220).
T1 construct: host or cells: HEK293
T1 sequence (P43220 24-463): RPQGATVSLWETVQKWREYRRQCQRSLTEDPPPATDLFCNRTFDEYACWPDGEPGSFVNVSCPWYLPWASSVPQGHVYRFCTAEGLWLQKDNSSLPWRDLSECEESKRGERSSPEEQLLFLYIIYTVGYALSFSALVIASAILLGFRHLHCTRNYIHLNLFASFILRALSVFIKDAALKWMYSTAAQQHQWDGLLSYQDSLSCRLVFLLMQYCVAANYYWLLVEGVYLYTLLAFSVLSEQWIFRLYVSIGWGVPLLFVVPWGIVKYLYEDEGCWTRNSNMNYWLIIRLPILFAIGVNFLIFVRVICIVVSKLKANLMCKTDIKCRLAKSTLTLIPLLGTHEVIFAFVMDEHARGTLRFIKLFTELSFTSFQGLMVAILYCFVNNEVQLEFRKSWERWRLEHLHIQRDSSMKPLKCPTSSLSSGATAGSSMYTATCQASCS
Nature of the assay: GLP-1R cAMP assay (Example B1a, HTRF, 30 min at room temperature). It is filed as cell-based. Conditions: cAMP accumulation in HEK293 expressing human GLP-1R, no BETP, 30 min room temperature (Method B1a, compounds ID 1-609), Table 1; read-out: EC50. In a few lines: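 Competitive HTRF read-out of cAMP after 30 min room-temperature stimulation, BETP absent, of human GLP-1R-HEK293 cells (1,000/well) in HEPES buffer with 500 μM IBMX and 0.1% BSA. Activation normalised to GLP-1(7-37) positive control. EC50 from 4-parameter non-linear regression.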
For `Cc1cc(-n2nc3c(c2-n2ccn(-c4ccc5c(cnn5C)c4F)c2=O)[C@@H]2CC[C@H](C3)N2C(=O)c2cc3cc([C@@H]4CCOC(C)(C)C4)ncc3n2[C@@]2(c3noc(=O)[nH]3)C[C@@H]2C)cc(C)c1F` [Compound 212, 3-((1S,2S)-1-(5-((R)-2,2-dimethyltetrahydro-2H-pyran-4-yl)-2-((4S,7R)-3-(3-(4-fluoro-1-methyl-1H-indazol-5-yl)-2-oxo-2,3-dihydro-1H-imidazol-1-yl)-2-(4-fluoro-3,5-dimethylphenyl)-2,4,5,6,7,8-hexahydro-4,7-epiminocyclohepta [c]pyrazole-9-carbonyl)-1H-pyrrolo[2,3-c]pyridin-1-yl)-2-methylcyclopropyl)-1,2,4-oxadiazol-5 (4H)-one], the EC50 came to 697 nM. As to `Cc1cc(-n2nc3c(c2-n2ccn(-c4ccc5c(cnn5C)c4F)c2=O)[C@@H]2CC[C@H](C3)N2C(=O)c2cc3cc(C4CCOC5(CC5)C4)ccc3n2[C@@]2(c3noc(=O)[nH]3)C[C@@H]2C)cc(C)c1F` (stereo partly drawn) [Compound 213, 3-((1S,2S)-1-(2-((4S,7R)-3-(3-(4-fluoro-1-methyl-1H-indazol-5-yl)-2-oxo-2,3-dihydro-1H-imidazol-1-yl)-2-(4-fluoro-3,5-dimethylphenyl)-2,4,5,6,7,8-hexahydro-4,7-epiminocyclohepta [c]pyrazole-9-carbonyl)-5-(4-oxaspiro[2.5]octan-7-yl)-1H-indol-1-yl)-2-methylcyclopropyl)-1,2,4-oxadiazol-5 (4H)-one], the EC50 stood at 81.2 nM. Consider `Cc1cc(-n2nc3c(c2-n2ccn(-c4ccc5c(cnn5C)c4F)c2=O)[C@@H]2CC[C@H](C3)N2C(=O)c2cc3cc([C@@H]4CCOC5(CC5)C4)ccc3n2[C@@]2(c3noc(=O)[nH]3)C[C@@H]2C)cc(C)c1F` [Compound 215, 3-((1S,2S)-1-(2-((4S,7R)-3-(3-(4-fluoro-1-methyl-1H-indazol-5-yl)-2-oxo-2,3-dihydro-1H-imidazol-1-yl)-2-(4-fluoro-3,5-dimethylphenyl)-2,4,5,6,7,8-hexahydro-4,7-epiminocyclohepta [c]pyrazole-9-carbonyl)-5-((R)-4-oxaspiro[2.5]octan-7-yl)-1H-indol-1-yl)-2-methylcyclopropyl)-1,2,4-oxadiazol-5 (4H)-one], for which the EC50 came out at 4130 nM.

Turning to `CCP(=O)(CC)c1ccc(-n2ccn(-c3c4c(nn3-c3cc(C)c(F)c(C)c3)C[C@H]3CC[C@@H]4N3C(=O)c3cc4cc(C5CCOCC5)ccc4n3[C@@]3(c4noc(=O)[nH]4)C[C@@H]3C)c2=O)cc1NC` [Compound 216, 3-[(1S,2S)-1-[2-[(1S,8R)-3-[3-[4-diethylphosphoryl-3-(methylamino)phenyl]-2-oxo-imidazol-1-yl]-4-(4-fluoro-3,5-dimethyl-phenyl)-4,5,11-triazatricyclo[6.2.1.02,6]undeca-2,5-diene-11-carbonyl]-5-tetrahydropyran-4-yl-indol-1-yl]-2-methyl-cyclopropyl]-4H-1,2,4-oxadiazol-5-one], the EC50 turned out to be 233 nM. In the case of `Cc1cc(-n2nc3c(c2-n2ccn(-c4ccc5c(cnn5C)c4F)c2=O)[C@@H]2CC[C@H](C3)N2C(=O)c2cc3nc([C@H]4CCOC(C)(C)C4)ccc3n2[C@@]2(c3noc(=O)[nH]3)C[C@@H]2C)cc(C)c1F` [Compound 217, 3-[(1S,2S)-1-[5-[(4S)-2,2-dimethyltetrahydropyran-4-yl]-2-[(1S,8R)-4-(4-fluoro-3,5-dimethyl-phenyl)-3-[3-(4-fluoro-1-methyl-indazol-5-yl)-2-oxo-imidazol-1-yl]-4,5,11-triazatricyclo[6.2.1.02,6]undeca-2,5-diene-11-carbonyl]pyrrolo[3,2-b]pyridin-1-yl]-2-methyl-cyclopropyl]-4H-1,2,4-oxadiazol-5-one], the EC50 came to 907 nM.

`Cc1cc(-n2nc3c(c2-n2ccn(-c4ccc5c(cnn5C)c4F)c2=O)[C@@H]2CC[C@H](C3)N2C(=O)c2cc3nc([C@@H]4CCOC(C)(C)C4)ccc3n2[C@@]2(c3noc(=O)[nH]3)C[C@@H]2C)cc(C)c1F` [Compound 218, 3-[(1S,2S)-1-[5-[(4R)-2,2-dimethyltetrahydropyran-4-yl]-2-[(1S,8R)-4-(4-fluoro-3,5-dimethyl-phenyl)-3-[3-(4-fluoro-1-methyl-indazol-5-yl)-2-oxo-imidazol-1-yl]-4,5,11-triazatricyclo[6.2.1.02,6]undeca-2,5-diene-11-carbonyl]pyrrolo[3,2-b]pyridin-1-yl]-2-methyl-cyclopropyl]-4H-1,2,4-oxadiazol-5-one]: the EC50 was over 10000 nM.

For the compound `CCc1nccc(-c2ccc3c(c2)cc(C(=O)N2[C@@H]4CC[C@H]2c2c(nn(-c5cc(C)c(F)c(C)c5)c2-n2ccn(-c5ccc6c(cnn6C)c5F)c2=O)C4)n3[C@@]2(c3noc(=O)[nH]3)C[C@@H]2C)c1C` [Compound 219, 3-[(1S,2S)-1-[5-(2-ethyl-3-methyl-4-pyridyl)-2-[(1S,8R)-4-(4-fluoro-3,5-dimethyl-phenyl)-3-[3-(4-fluoro-1-methyl-indazol-5-yl)-2-oxo-imidazol-1-yl]-4,5,11-triazatricyclo[6.2.1.02,6]undeca-2,5-diene-11-carbonyl]indol-1-yl]-2-methyl-cyclopropyl]-4H-1,2,4-oxadiazol-5-one], the EC50 came to 269 nM. `Cc1cc(-n2nc3c(c2-n2ccn(-c4ccc5c(cnn5C)c4F)c2=O)[C@@H]2COC[C@H](C3)N2C(=O)c2cc3cc(C4CCOC5(CC5)C4)ccc3n2[C@@]2(c3noc(=O)[nH]3)C[C@@H]2C)cc(C)c1F` (stereo partly drawn) [Compound 220, 3-((1S,2S)-1-(2-((4R,8S)-3-(3-(4-fluoro-1-methyl-1H-indazol-5-yl)-2-oxo-2,3-dihydro-1H-imidazol-1-yl)-2-(4-fluoro-3,5-dimethylphenyl)-2,4,5,7,8,9-hexahydro-4,8-epiminooxocino [5,4-c]pyrazole-10-carbonyl)-5-(4-oxaspiro[2.5]octan-7-yl)-1H-indol-1-yl)-2-methylcyclopropyl)-1,2,4-oxadiazol-5 (4H)-one]: the EC50 was found to be 795 nM. Regarding `Cc1cc(-n2nc3c(c2-n2ccn(-c4ccc5c(cnn5C)c4F)c2=O)[C@@H]2COC[C@H](C3)N2C(=O)c2cc3cc(C4CCOCC4)ccc3n2[C@@]2(c3noc(=O)[nH]3)C[C@@H]2C)cc(C)c1F` [Compound 221, 3-((1S,2S)-1-(2-((4R,8S)-3-(3-(4-fluoro-1-methyl-1H-indazol-5-yl)-2-oxo-2,3-dihydro-1H-imidazol-1-yl)-2-(4-fluoro-3,5-dimethylphenyl)-2,4,5,7,8,9-hexahydro-4,8-epiminooxocino [5,4-c]pyrazole-10-carbonyl)-5-(tetrahydro-2H-pyran-4-yl)-1H-indol-1-yl)-2-methylcyclopropyl)-1,2,4-oxadiazol-5 (4H)-one], the EC50 was 129 nM. For `Cc1cc(-n2nc3c(c2-n2ccn(-c4ccc5c(cnn5C)c4Cl)c2=O)[C@@H]2COC[C@H](C3)N2C(=O)c2cc3cc([C@H]4CCOC(C)(C)C4)ccc3n2[C@@]2(c3noc(=O)[nH]3)C[C@@H]2C)cc(C)c1F` [Compound 222, 3-((1S,2S)-1-(2-((4R,8S)-3-(3-(4-chloro-1-methyl-1H-indazol-5-yl)-2-oxo-2,3-dihydro-1H-imidazol-1-yl)-2-(4-fluoro-3,5-dimethylphenyl)-2,4,5,7,8,9-hexahydro-4,8-epiminooxocino [5,4-c]pyrazole-10-carbonyl)-5-((S)-2,2-dimethyltetrahydro-2H-pyran-4-yl)-1H-indol-1-yl)-2-methylcyclopropyl)-1,2,4-oxadiazol-5(4H)-one], the EC50 was 177 nM.

Consider `COc1ccc(-n2ccn(-c3c4c(nn3-c3cc(C)c(F)c(C)c3)C[C@H]3CC[C@@H]4N3C(=O)c3cc4cc([C@H]5CCOC(C)(C)C5)ccc4n3[C@@]3(c4noc(=O)[nH]4)C[C@@H]3C)c2=O)cc1` [Compound 223, 3-[(1S,2S)-1-[5-[(4S)-2,2-dimethyltetrahydropyran-4-yl]-2-[(1S,8R)-4-(4-fluoro-3,5-dimethyl-phenyl)-3-[3-(4-methoxyphenyl)-2-oxo-imidazol-1-yl]-4,5,11-triazatricyclo[6.2.1.02,6]undeca-2,5-diene-11-carbonyl]indol-1-yl]-2-methyl-cyclopropyl]-4H-1,2,4-oxadiazol-5-one], for which the EC50 turned out to be 259 nM. For `Cc1cc(-n2nc3c(c2-n2ccn(-c4cc(F)c5c(cnn5C)c4F)c2=O)[C@@H]2COC[C@H](C3)N2C(=O)c2cc3cc([C@H]4CCOC(C)(C)C4)ccc3n2[C@@]2(c3noc(=O)[nH]3)C[C@@H]2C)cc(C)c1F` [Compound 224, 3-[(1S,2S)-1-[2-[(1R,8S)-3-[3-(4,7-difluoro-1-methyl-indazol-5-yl)-2-oxo-imidazol-1-yl]-4-(4-fluoro-3,5-dimethyl-phenyl)-10-oxa-4,5,12-triazatricyclo[6.3.1.02,6]dodeca-2,5-diene-12-carbonyl]-5-[(4S)-2,2-dimethyltetrahydropyran-4-yl]indol-1-yl]-2-methyl-cyclopropyl]-4H-1,2,4-oxadiazol-5-one], the EC50 was determined as 212 nM. `Cc1cc(-n2nc3c(c2-n2ccn(-c4ccc5c(cnn5C)c4F)c2=O)[C@@H]2COC[C@H](C3)N2C(=O)c2cc3cc([C@H]4CCOC(C)(C)C4)ncc3n2[C@@]2(c3noc(=O)[nH]3)C[C@@H]2C)cc(C)c1F` [Compound 225, 3-((1S,2S)-1-(5-((S)-2,2-dimethyltetrahydro-2H-pyran-4-yl)-2-((4R,8S)-3-(3-(4-fluoro-1-methyl-1H-indazol-5-yl)-2-oxo-2,3-dihydro-1H-imidazol-1-yl)-2-(4-fluoro-3,5-dimethylphenyl)-2,4,5,7,8,9-hexahydro-4,8-epiminooxocino [5,4-c]pyrazole-10-carbonyl)-1H-pyrrolo[2,3-c]pyridin-1-yl)-2-methylcyclopropyl)-1,2,4-oxadiazol-5 (4H)-one]: the EC50 is 34.1 nM.
